Drawing on DBAASP, this text covers MIC for 5 compounds.

≈ marks a conversion by molar mass, not a printed value. Where “and” joins values, the source holds several entries; their conditions need not be identical. Equal entries are not always repeated.

Some test systems named below: Serratia rubidaea X01; Shigella dysenteriae; Klebsiella pneumoniae; Escherichia coli K-12; Staphylococcus aureus 37; Escherichia coli 37; Pseudomonas aeruginosa; Escherichia coli 117; Escherichia coli 218; Saccharomyces cerevisiae; Aspergillus flavus; Bacillus megaterium.
Common to all, as to experiment: ≥ marks a high value that may be exact or a test limit, other limits are often not marked, values filed in µg/mL are converted to µM
The test system of assay [1] is Enterococcus faecalis 981.
Assay [2] concerns Escherichia coli ATCC 25922.
Assay [3] has as its system Psychrobacter faecalis X29.
Assay [4] relates to Staphylococcus carnosus KHS.
Assay [5] deals with Bacillus licheniformis X39.
Assay [6] concerns Rhodococcus rhodochrous X15.
For assay [7], the system named is Staphylococcus aureus ATCC 25923.
The test system of assay [8] is Staphylococcus aureus ATCC 2592.
Assay [9] concerns Helicobacter pylori NCTC 11637.
Assay [10] deals with Candida albicans ATCC 2002.
Assay [11] relates to Escherichia coli ATCC 25726.
The test system of assay [12] is Acinetobacter baumannii I NM8.
Assay [13] deals with Candida albicans ATCC 90028.
The subject of assay [14] is Klebsiella pneumoniae ATCC 700603.
For assay [15], the system named is Enterobacter cloacae ATCC 13047.
In assay [16] the test system is Staphylococcus aureus USA 300.
The test system of assay [17] is Candida parapsilosis ATCC 22019.
For assay [18], the system named is Enterococcus faecalis ATCC 29212.
Assay [19] relates to Pseudomonas aeruginosa ATCC 27853.
The subject of assay [20] is Pseudomonas aeruginosa CMCCB 1010.
The subject of assay [21] is Escherichia coli ATCC 35218.

As to `CC[C@H](C)[C@H](NC(=O)CNC(=O)[C@H](Cc1ccccc1)NC(=O)[C@H](CCC(=O)O)NC(=O)[C@H](CCCCN)NC(=O)[C@H](CC(C)C)NC(=O)[C@H](CCCCN)NC(=O)[C@H](CC(=O)O)NC(=O)[C@H](CC(C)C)NC(=O)[C@@H](NC(=O)CN)[C@@H](C)CC)C(=O)N[C@@H](CO)C(=O)N[C@@H](C)C(=O)N[C@@H](C)C(=O)N[C@@H](CCCN=C(N)N)C(=O)NCC(=O)N[C@H](C(=O)N[C@@H](C)C(=O)N[C@@H](CCC(N)=O)C(=O)N[C@@H](CO)C(=O)N[C@@H](CC(C)C)C(=O)N[C@@H](CC(C)C)C(=O)N[C@@H](CC(N)=O)C(=O)N[C@H](C(=O)N[C@@H](C)C(=O)N[C@@H](CO)C(=O)N[C@H]1CSSC[C@@H](C(=O)O)NC(=O)[C@H]([C@@H](C)O)NC(=O)[C@H](CCCCN)NC(=O)[C@H](C)NC(=O)[C@H](CC(C)C)NC(=O)[C@H](CCCCN)NC1=O)[C@@H](C)O)C(C)C` [GILDKLKEFGISAARGVAQSLLNTASCKLAKTC], the minimum inhibitory concentration (MIC) (usually the smallest concentration in the dilution series that meets the test's criterion for growth inhibition) in assay [1] was not below 37.5 µM; in [2], 150 µM (≈ 511 µg/mL); in assay [3], 2.3 µM (≈ 7.83 µg/mL); in assay [4], not below 37.5 µM; in assay [5] it was not below 75 µM; in assay [6], 2.3 µM (≈ 7.83 µg/mL). In addition, the MIC against Serratia rubidaea X01 came out at 2.3 µM (≈ 7.83 µg/mL); in assay [7], 37.5 µM (≈ 128 µg/mL).

As for `CC[C@H](C)[C@H](NC(=O)[C@H](CCC(N)=O)NC(=O)[C@H](CCCCN)NC(=O)[C@H](Cc1c[nH]c2ccccc12)NC(=O)[C@H](CO)NC(=O)[C@H](CCC(N)=O)NC(=O)[C@@H]1CCCN1C(=O)[C@H](CC(C)C)NC(=O)[C@H](CCCCN)NC(=O)[C@H](C)NC(=O)[C@H](CCC(=O)O)NC(=O)[C@H](CCCCN)NC(=O)[C@@H](NC(=O)[C@H](CCSC)NC(=O)[C@@H](NC(=O)[C@@H](NC(=O)[C@@H](NC(=O)[C@@H](N)CO)[C@@H](C)CC)[C@@H](C)CC)[C@@H](C)O)[C@@H](C)O)C(=O)N[C@@H](C)C(=O)N[C@H]1CSSC[C@@H](C(=O)O)NC(=O)[C@H]([C@@H](C)O)NC(=O)[C@H](CC(N)=O)NC(=O)[C@H](Cc2ccc(O)cc2)NC(=O)[C@H](CC(C)C)NC(=O)[C@H](CCCN=C(N)N)NC1=O` [SIITMTKEAKLPQSWKQIACRLYNTC], the MIC in assay [8] turned out to be 4.95 µM (≈ 15 µg/mL); in assay [2], 19.8 µM (≈ 60 µg/mL); in [9], 9.91 µM (≈ 30 µg/mL); in assay [10], 9.91 µM (≈ 30 µg/mL); against Shigella dysenteriae it was 19.8 µM (≈ 60 µg/mL).

Take `CC[C@H](C)[C@H](NC(=O)[C@@H](NC(=O)[C@H](CO)NC(=O)[C@H](C)NC(=O)[C@H](CC(C)C)NC(=O)CN)[C@@H](C)O)C(=O)NCC(=O)N[C@@H](CO)C(=O)N[C@@H](CC(C)C)C(=O)N[C@@H](CC(C)C)C(=O)NCC(=O)N[C@@H](CCCCN)C(=O)N[C@@H](Cc1ccccc1)C(=O)N[C@@H](C)C(=O)N[C@@H](CCCCN)C(=O)NCC(=O)NCC(=O)N[C@@H](C)C(=O)N[C@@H](CCC(N)=O)C(=O)N[C@@H](C)C(=O)N[C@@H](Cc1ccccc1)C(=O)N[C@@H](CC(C)C)C(=O)N[C@@H](CCC(N)=O)C(=O)N1CCC[C@H]1C(=O)N[C@@H](CCCCN)C(=O)O` [GLASTIGSLLGKFAKGGAQAFLQPK]: the MIC in [11] was not below 160 µM; in assay [12] it was 25 µM (≈ 61.5 µg/mL); in [13] it was not below 50 µM; in assay [7], 80 µM and 100 µM; in assay [14] it was more than 50 µM.

As for `CC[C@H](C)[C@H](N)C(=O)N[C@@H](CC(N)=O)C(=O)N[C@@H](CC(C)C)C(=O)N[C@@H](CCCCN)C(=O)N[C@@H](C)C(=O)N[C@H](C(=O)N[C@@H](C)C(=O)N[C@@H](C)C(=O)N[C@@H](CC(C)C)C(=O)N[C@@H](C)C(=O)N[C@@H](CCCCN)C(=O)N[C@@H](CCCCN)C(=O)N[C@@H](CC(C)C)C(=O)N[C@@H](CC(C)C)C(=O)O)[C@@H](C)CC` [INLKAIAALAKKLL], the MIC in [15] is 13.5 µM (≈ 20 µg/mL); in assay [16] it was not below 100 µM; with Klebsiella pneumoniae, 6.76 µM (≈ 10 µg/mL); in [2], 13.5 µM (≈ 20 µg/mL); in the assay on Escherichia coli K-12, 25 µM (≈ 37 µg/mL); in [17], 27 µM (≈ 40 µg/mL). Also, the MIC in [18] turned out to be 1.69 µM (≈ 2.5 µg/mL); against Staphylococcus aureus 37, 6.76 µM (≈ 10 µg/mL); in assay [19], 3.38 µM (≈ 5 µg/mL); in the assay with Escherichia coli 37 it was 6.76 µM (≈ 10 µg/mL); in assay [13], 6.76 µM (≈ 10 µg/mL); in the assay on Pseudomonas aeruginosa, 3.38 µM (≈ 5 µg/mL). Further, the MIC in assay [10] worked out at 6.76 µM (≈ 10 µg/mL); against Escherichia coli 117, 27 µM (≈ 40 µg/mL); in the assay with Escherichia coli 218, 13.5 µM (≈ 20 µg/mL); against Shigella dysenteriae it was 3.38 µM (≈ 5 µg/mL); in assay [20] it was 27 µM (≈ 40 µg/mL); in [7], 3.38 µM (≈ 5 µg/mL). The MIC in assay [14] is 6.76 µM (≈ 10 µg/mL).

`CC[C@H](C)[C@H](NC(=O)[C@H](Cc1cnc[nH]1)NC(=O)[C@H](CO)NC(=O)[C@H](CC(C)C)NC(=O)[C@@H](N)Cc1ccccc1)C(=O)N[C@@H](C)C(=O)NCC(=O)N[C@@H](Cc1ccccc1)C(=O)N[C@@H](CC(C)C)C(=O)N[C@@H](CO)C(=O)N[C@@H](CC(N)=O)C(=O)N[C@@H](CC(C)C)C(=O)N[C@@H](Cc1ccccc1)C(=O)O` [FLSHIAGFLSNLF]: the MIC was 161 µM (≈ 236 µg/mL) in assay [2]; 20 µM (≈ 29.3 µg/mL) in assay [17]; more than 80 µM in [18]; more than 161 µM in assay [19]; not below 80 µM in [21]; 20 µM (≈ 29.3 µg/mL) in [13]. For the same compound, the minimum inhibitory concentration (MIC) with Saccharomyces cerevisiae worked out at 10 µM (≈ 14.7 µg/mL); with Aspergillus flavus it was 10 µM (≈ 14.7 µg/mL); in assay [7], 10 µM (≈ 14.7 µg/mL); against Bacillus megaterium, 4 µM (≈ 5.86 µg/mL).
